# In patent publication US6358885B1, “Substituted phenylheterocyclic herbicides” (Mississippi State University, priority 1992, dated 2002):
# How the values were obtained:
# Experiment in all cases: Test B preemergence/postemergence greenhouse plant response rating 0 to 10
# [1] = tested on: giant foxtail; type: in vivo, Setaria faberii; details: for Plant response rating (0 to 10 scale), Giant foxtail: Rate 100 g/ha; for Plant response rating, Giant foxtail: Rate 400 g/ha, 0 to 10 scale
# Procedure, shortened: (§1)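 Test chemicals were sprayed onto freshly planted seed and, concurrently, onto young plants between the one and four leaf stage. After a twelve- to sixteen-day greenhouse period, each species was visually compared with untreated controls.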
# [2] = tested on: cocklebur; type: in vivo, Xanthium pensylvanicum; details: for Plant response rating (0 to 10 scale), Cocklebur: Rate 100 g/ha; for Plant response rating, Cocklebur: Rate 400 g/ha, 0 to 10 scale
# Procedure, shortened: as §1
# [3] = tested on: corn; type: in vivo, Zea mays; details: for Plant response rating (0 to 10 scale), Corn: Rate 100 g/ha; for Plant response rating, Corn: Rate 400 g/ha, 0 to 10 scale
# Procedure, shortened: as §1
# [4] = tested on: sorghum; type: in vivo, Sorghum bicolor; details: for Plant response rating (0 to 10 scale), Sorghum: Rate 100 g/ha; for Plant response rating, Sorghum: Rate 400 g/ha, 0 to 10 scale
# Procedure, shortened: as §1
# [5] = tested on: sugar beet; type: in vivo, Beta vulgaris; details: for Plant response rating (0 to 10 scale), Sugar beet: Rate 100 g/ha; for Plant response rating, Sugar beet: Rate 400 g/ha, 0 to 10 scale
# Procedure, shortened: as §1
# [6] = tested on: purple nutsedge; type: in vivo, Cyperus rotundus; details: for Plant response rating (0 to 10 scale), Nutsedge: Rate 100 g/ha; for Plant response rating, Nutsedge: Rate 400 g/ha, 0 to 10 scale
# Procedure, shortened: as §1
# [7] = tested on: crabgrass; type: in vivo, Digitaria spp.; details: for Plant response rating (0 to 10 scale), Crabgrass: Rate 100 g/ha; for Plant response rating, Crabgrass: Rate 400 g/ha, 0 to 10 scale
# Procedure, shortened: as §1
# [8] = tested on: velvetleaf; type: in vivo, Abutilon theophrasti; details: for Plant response rating (0 to 10 scale), Velvetleaf: Rate 100 g/ha; for Plant response rating, Velvetleaf: Rate 400 g/ha, 0 to 10 scale
# Procedure, shortened: as §1
# [9] = tested on: cotton; type: in vivo, Gossypium hirsutum; details: for Plant response rating (0 to 10 scale), Cotton: Rate 100 g/ha; for Plant response rating, Cotton: Rate 400 g/ha, 0 to 10 scale
# Procedure, shortened: as §1
# [10] = tested on: wild oat; type: in vivo, Avena fatua; details: for Plant response rating (0 to 10 scale), Wild oat: Rate 100 g/ha; for Plant response rating, Wild oat: Rate 400 g/ha, 0 to 10 scale
# Procedure, shortened: as §1
# [11] = tested on: barley; type: in vivo, Hordeum vulgare; details: for Plant response rating (0 to 10 scale), Barley: Rate 100 g/ha; for Plant response rating, Barley: Rate 400 g/ha, 0 to 10 scale
# Procedure, shortened: as §1
# [12] = tested on: wheat; type: in vivo, Triticum aestivum; details: for Plant response rating (0 to 10 scale), Wheat: Rate 100 g/ha; for Plant response rating, Wheat: Rate 400 g/ha, 0 to 10 scale
# Procedure, shortened: as §1
# [13] = tested on: cheatgrass; type: in vivo, Bromus secalinus; details: for Plant response rating (0 to 10 scale), Cheatgrass: Rate 100 g/ha; for Plant response rating, Cheatgrass: Rate 400 g/ha, 0 to 10 scale
# Procedure, shortened: as §1
# [14] = tested on: rice; type: in vivo, Oryza sativa; details: for Plant response rating (0 to 10 scale), Rice: Rate 100 g/ha; for Plant response rating, Rice: Rate 400 g/ha, 0 to 10 scale
# Procedure, shortened: as §1
# [15] = tested on: bedstraw; type: in vivo, Galium aparine; details: for Plant response rating (0 to 10 scale), Bedstraw: Rate 100 g/ha; for Plant response rating, Bedstraw: Rate 400 g/ha, 0 to 10 scale
# Procedure, shortened: as §1
# [16] = tested on: rape; type: in vivo, Brassica napus; details: for Plant response rating (0 to 10 scale), Rape: Rate 100 g/ha; for Plant response rating, Rape: Rate 400 g/ha, 0 to 10 scale
# Procedure, shortened: as §1
# [17] = tested on: chickweed; type: in vivo, Stellaria media; details: for Plant response rating (0 to 10 scale), Chickweed: Rate 100 g/ha; for Plant response rating, Chickweed: Rate 400 g/ha, 0 to 10 scale
# Procedure, shortened: as §1
# [18] = tested on: blackgrass; type: in vivo, Alopecurus myosuroides; details: for Plant response rating (0 to 10 scale), Blackgrass: Rate 100 g/ha; for Plant response rating, Blackgrass: Rate 400 g/ha, 0 to 10 scale
# Procedure, shortened: as §1
# [19] = tested on: soybean; type: in vivo, Glycine max; details: for Plant response rating (0 to 10 scale), Soybean: Rate 100 g/ha; for Plant response rating, Soybean: Rate 400 g/ha, 0 to 10 scale
# Procedure, shortened: as §1
# [20] = tested on: barnyardgrass; type: in vivo, Echinochloa crus-galli; details: for Plant response rating (0 to 10 scale), Barnyardgrass: Rate 100 g/ha; for Plant response rating, Barnyardgrass: Rate 400 g/ha, 0 to 10 scale
# Procedure, shortened: as §1
# [21] = tested on: wild buckwheat; type: in vivo, Polygonum convolvulus; details: for Plant response rating (0 to 10 scale), Wild buckwheat: Rate 100 g/ha; for Plant response rating, Wild buckwheat: Rate 400 g/ha, 0 to 10 scale
# Procedure, shortened: as §1
# [22] = tested on: lambsquarters; type: in vivo, Chenopodium album; details: for Plant response rating (0 to 10 scale), Lambsquarter: Rate 100 g/ha; for Plant response rating, Lambsquarter: Rate 400 g/ha, 0 to 10 scale
# Procedure, shortened: as §1
# [23] = tested on: morningglory; type: in vivo, Ipomoea hederacea; details: for Plant response rating (0 to 10 scale), Morningglory: Rate 100 g/ha; for Plant response rating, Morningglory: Rate 400 g/ha, 0 to 10 scale
# Procedure, shortened: as §1
smiles,measurement,setting,value
Fc1ccc(-c2nc3n(c2Br)CCCC3)c(F)c1 [Compound 7],"Plant response rating (0 to 10 scale), Giant foxtail",[1]; POSTEMERGENCE,5
same,"Plant response rating, Giant foxtail",[1]; POSTEMERGENCE,5
same,"Plant response rating (0 to 10 scale), Giant foxtail",[1]; PREEMERGENCE,3
same,"Plant response rating, Giant foxtail",[1]; PREEMERGENCE,4
same,"Plant response rating (0 to 10 scale), Cocklebur",[2]; POSTEMERGENCE,7
same,"Plant response rating, Cocklebur",[2]; POSTEMERGENCE,8
same,"Plant response rating (0 to 10 scale), Cocklebur",[2]; PREEMERGENCE,0
same,"Plant response rating, Cocklebur",[2]; PREEMERGENCE,0
same,"Plant response rating (0 to 10 scale), Corn",[3]; POSTEMERGENCE,3
same,"Plant response rating, Corn",[3]; POSTEMERGENCE,4
same,"Plant response rating (0 to 10 scale), Corn",[3]; PREEMERGENCE,0
same,"Plant response rating, Corn",[3]; PREEMERGENCE,0
same,"Plant response rating (0 to 10 scale), Sorghum",[4]; POSTEMERGENCE,5
same,"Plant response rating, Sorghum",[4]; POSTEMERGENCE,6
same,"Plant response rating (0 to 10 scale), Sorghum",[4]; PREEMERGENCE,0
same,"Plant response rating, Sorghum",[4]; PREEMERGENCE,0
same,"Plant response rating (0 to 10 scale), Sugar beet",[5]; POSTEMERGENCE,9
same,"Plant response rating, Sugar beet",[5]; POSTEMERGENCE,10
same,"Plant response rating (0 to 10 scale), Sugar beet",[5]; PREEMERGENCE,0
same,"Plant response rating, Sugar beet",[5]; PREEMERGENCE,0
same,"Plant response rating (0 to 10 scale), Nutsedge",[6]; POSTEMERGENCE,1
same,"Plant response rating, Nutsedge",[6]; POSTEMERGENCE,2
same,"Plant response rating (0 to 10 scale), Nutsedge",[6]; PREEMERGENCE,0
same,"Plant response rating, Nutsedge",[6]; PREEMERGENCE,2
same,"Plant response rating (0 to 10 scale), Crabgrass",[7]; POSTEMERGENCE,4
same,"Plant response rating, Crabgrass",[7]; POSTEMERGENCE,4
same,"Plant response rating (0 to 10 scale), Crabgrass",[7]; PREEMERGENCE,2
same,"Plant response rating, Crabgrass",[7]; PREEMERGENCE,6
same,"Plant response rating (0 to 10 scale), Velvetleaf",[8]; POSTEMERGENCE,7
same,"Plant response rating, Velvetleaf",[8]; POSTEMERGENCE,9
same,"Plant response rating (0 to 10 scale), Velvetleaf",[8]; PREEMERGENCE,1
same,"Plant response rating, Velvetleaf",[8]; PREEMERGENCE,5
same,"Plant response rating (0 to 10 scale), Cotton",[9]; POSTEMERGENCE,9
same,"Plant response rating, Cotton",[9]; POSTEMERGENCE,10
same,"Plant response rating (0 to 10 scale), Cotton",[9]; PREEMERGENCE,0
same,"Plant response rating, Cotton",[9]; PREEMERGENCE,0
same,"Plant response rating (0 to 10 scale), Wild oat",[10]; POSTEMERGENCE,2
same,"Plant response rating, Wild oat",[10]; POSTEMERGENCE,3
same,"Plant response rating (0 to 10 scale), Wild oat",[10]; PREEMERGENCE,0
same,"Plant response rating, Wild oat",[10]; PREEMERGENCE,0
same,"Plant response rating (0 to 10 scale), Barley",[11]; POSTEMERGENCE,2
same,"Plant response rating, Barley",[11]; POSTEMERGENCE,3
same,"Plant response rating (0 to 10 scale), Barley",[11]; PREEMERGENCE,0
same,"Plant response rating, Barley",[11]; PREEMERGENCE,0
same,"Plant response rating (0 to 10 scale), Wheat",[12]; POSTEMERGENCE,3
same,"Plant response rating, Wheat",[12]; POSTEMERGENCE,5
same,"Plant response rating (0 to 10 scale), Wheat",[12]; PREEMERGENCE,0
same,"Plant response rating, Wheat",[12]; PREEMERGENCE,0
same,"Plant response rating (0 to 10 scale), Cheatgrass",[13]; POSTEMERGENCE,3
same,"Plant response rating, Cheatgrass",[13]; POSTEMERGENCE,4
same,"Plant response rating (0 to 10 scale), Cheatgrass",[13]; PREEMERGENCE,0
same,"Plant response rating, Cheatgrass",[13]; PREEMERGENCE,0
same,"Plant response rating (0 to 10 scale), Rice",[14]; POSTEMERGENCE,5
same,"Plant response rating, Rice",[14]; POSTEMERGENCE,5
same,"Plant response rating (0 to 10 scale), Rice",[14]; PREEMERGENCE,0
same,"Plant response rating, Rice",[14]; PREEMERGENCE,0
same,"Plant response rating (0 to 10 scale), Bedstraw",[15]; POSTEMERGENCE,4
same,"Plant response rating, Bedstraw",[15]; POSTEMERGENCE,6
same,"Plant response rating (0 to 10 scale), Bedstraw",[15]; PREEMERGENCE,0
same,"Plant response rating, Bedstraw",[15]; PREEMERGENCE,2
same,"Plant response rating (0 to 10 scale), Rape",[16]; POSTEMERGENCE,5
same,"Plant response rating, Rape",[16]; POSTEMERGENCE,7
same,"Plant response rating (0 to 10 scale), Rape",[16]; PREEMERGENCE,0
same,"Plant response rating, Rape",[16]; PREEMERGENCE,0
same,"Plant response rating (0 to 10 scale), Chickweed",[17]; POSTEMERGENCE,3
same,"Plant response rating, Chickweed",[17]; POSTEMERGENCE,3
same,"Plant response rating (0 to 10 scale), Chickweed",[17]; PREEMERGENCE,0
same,"Plant response rating, Chickweed",[17]; PREEMERGENCE,3
same,"Plant response rating (0 to 10 scale), Blackgrass",[18]; POSTEMERGENCE,3
same,"Plant response rating, Blackgrass",[18]; POSTEMERGENCE,4
same,"Plant response rating (0 to 10 scale), Blackgrass",[18]; PREEMERGENCE,0
same,"Plant response rating, Blackgrass",[18]; PREEMERGENCE,2
same,"Plant response rating (0 to 10 scale), Soybean",[19]; POSTEMERGENCE,8
same,"Plant response rating, Soybean",[19]; POSTEMERGENCE,8
same,"Plant response rating (0 to 10 scale), Soybean",[19]; PREEMERGENCE,0
same,"Plant response rating, Soybean",[19]; PREEMERGENCE,0
same,"Plant response rating (0 to 10 scale), Barnyardgrass",[20]; POSTEMERGENCE,4
same,"Plant response rating, Barnyardgrass",[20]; POSTEMERGENCE,6
same,"Plant response rating (0 to 10 scale), Barnyardgrass",[20]; PREEMERGENCE,1
same,"Plant response rating, Barnyardgrass",[20]; PREEMERGENCE,2
same,"Plant response rating (0 to 10 scale), Wild buckwheat",[21]; POSTEMERGENCE,9
same,"Plant response rating, Wild buckwheat",[21]; POSTEMERGENCE,10
same,"Plant response rating (0 to 10 scale), Wild buckwheat",[21]; PREEMERGENCE,0
same,"Plant response rating, Wild buckwheat",[21]; PREEMERGENCE,3
same,"Plant response rating (0 to 10 scale), Lambsquarter",[22]; POSTEMERGENCE,8
same,"Plant response rating, Lambsquarter",[22]; POSTEMERGENCE,9
same,"Plant response rating (0 to 10 scale), Lambsquarter",[22]; PREEMERGENCE,0
same,"Plant response rating, Lambsquarter",[22]; PREEMERGENCE,6
same,"Plant response rating (0 to 10 scale), Morningglory",[23]; POSTEMERGENCE,8
same,"Plant response rating, Morningglory",[23]; POSTEMERGENCE,9
same,"Plant response rating (0 to 10 scale), Morningglory",[23]; PREEMERGENCE,0
same,"Plant response rating, Morningglory",[23]; PREEMERGENCE,0
